Measured values reported in patent US20230123334A1, “AMINO LIPID COMPOUND, PREPARATION METHOD THEREFOR, AND APPLICATION THEREOF” (SHENZHEN SHENXIN BIOTECHNOLOGY CO., LTD., priority 2020, published 2023).

Key:
HEK293 cells [1] = experiment: Preliminary screening as DNA vectors, GFP transfection of HEK293 cells; type: cell-based; conditions: HEK293 cells; lipid/DOPE liposome with 75 ng plasmid DNA (psin-EGFP-IRES-Puro); number of cells expressing GFP divided by total number of nuclei (Hoechst)
Summary of the method: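 HEK293 cells in DMEM/10% FBS transfected with 75 ng EGFP plasmid per well complexed with amino lipid/DOPE liposomes in pH 5.6 sodium acetate. Hoechst nuclear stain added 20-24 h post-transfection, then cells cultured another 20-24 h. Confocal imaging gives GFP-positive cells as % of total nuclei.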

HEK293 cells [2] = experiment: Preliminary screening as mRNA vectors, EGFP mRNA transfection of HEK293 cells; type: cell-based; conditions: HEK293 cells, 96-well plates, EGFP mRNA 50 ng per well; percentage of GFP fluorescent cells relative to total number of cells (Hoechst)
Summary of the method: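 HEK293 cells in DMEM plus 10% FBS transfected in 96-well format with 50 ng EGFP mRNA per well; Lipofectamine2000 served as positive control. Read-out is the percentage of GFP-fluorescent cells among total cells, counted by Hoechst nuclear stain.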

SMILES	Absolute DNA transfection efficiency in HEK293 cells (HEK293 cells [1]) [%]	Absolute mRNA transfection efficiency in HEK293 cells (HEK293 cells [2]) [%]
CCCCCCCCCCCCSc1nc(NCCN(CC)CC)nc(SCCCCCCCCCCCC)n1 [Compound S12S12D7]	3.3	1.3
CCCCCCCCCCCCCCCCCCNc1nc(NCCCCCCCCCCCCC)nc(NCCCN(C)C)n1 [Compound N13N18D6]	3.0	14.7
CCCCCCCCCCCCCCCCCCSc1nc(NCCN2CCCC2)nc(SCCCCCCCCCCC)n1 [Compound S11S18D3]	4.8	11.6
CCCCCCCCCCCCCCCSc1nc(NCCN(CC)CC)nc(SCCCCCCCCCCC)n1 [Compound S11S15D7]	5.3	0.7
CCCCCCCCCCCCNc1nc(NCCCCCC)nc(NCCN2CCCCC2)n1 [Compound N6N12D4]	0.0	0.0
CCCCCCCCCCCCCCCCNc1nc(NCCCCCCCC)nc(NCCCN(C)C)n1 [Compound N8N16D6]	2.4	1.5
CCCCCCCCCCCCCCCCSc1nc(NCCN(C)C)nc(SCCCCCCCC)n1 [Compound S8S16D1]	4.6	2.2
CCCCCCCCCCCCCCCNc1nc(NCCCCCCCCCCCCCCC)nc(NCCN2CCN(C)CC2)n1 [Compound N15N15D5]	0.9	0.0
CCCCCCCCCCCCN(CCCCCCCCCCCC)c1nc(NCCCN2CCOCC2)nc(N(CCCCCCCCCCCC)CCCCCCCCCCCC)n1 [2N12^2N12D8]	0.1	0.0
CCCCCCCCCCCCCCCNc1nc(NCCCCCCC)nc(NCCN2CCCC2)n1 [Compound N7N15D3]	5.2	3.8
CCCCCCCCCCSc1nc(NCCCN(C)C)nc(SCCCCCCCCCC)n1 [Compound S10S10D6]	23.6	59.1
CCCCCCCCCCCCCCCCNc1nc(NCCCCCCCCCCC)nc(NCC2CCN(C)CC2)n1 [Compound N11N16D10]	0.6	1.1
CCCCCCNc1nc(NCCCCCC)nc(NCCN2CCCC2)n1 [Compound N6N6D3]	0.2	0.3
CCCCCCCCNc1nc(NCCCCCC)nc(NCCN(C)C)n1 [Compound N6N8D1]	0.0	0.0
CCCCCCCCCCCCCCSc1nc(NCCCN(C)C)nc(SCCCCCCCC)n1 [Compound S8S14D6]	16.2	79.5
CCCCCCCCCCCCCCCCCCSc1nc(NCCN2CCCCC2)nc(SCCCCCCCCCCCCCCCCCC)n1 [Compound S18S18D4]	0.1	0.1
CCCCCCCCCCCCCCCCSc1nc(NCCN2CCCC2)nc(SCCCCCCCCCCCCCCCC)n1 [Compound S16S16D3]	0.9	0.8
CCCCCCCCCCCCCCCCNc1nc(NCCCCCCCCCCCCCCC)nc(NCCCN2CCOCC2)n1 [Compound N15N16D8]	0.0	0.0
CCCCCCCCCCCCCCCCNc1nc(NCCCCCCCCCCCCC)nc(NCCN(CC)CC)n1 [Compound N13N16D7]	1.5	0.6
CCCCCCCCCNc1nc(NCCCCCC)nc(NCCN(CC)CC)n1 [Compound N6N9D7]	0.0	0.0
CCCCCCCCCCCCCCSc1nc(NCCCN(C)C)nc(SCCCCCCCCCCC)n1 [Compound S11S14D6]	6.6	30.0
CCCCCCCCCNc1nc(NCCCCCCCCC)nc(NCCN(CC)CC)n1 [Compound N9N9D7]	0.0	0.3
CCCCCCCCCCCCCCCCCCNc1nc(NCCCCCCCC)nc(NCCN2CCCC2)n1 [Compound N8N18D3]	9.8	39.9
CCCCCCCCCNc1nc(NCCCCCCC)nc(NCCN2CCCC2)n1 [Compound N7N9D3]	0.0	0.1

SMILES	Absolute DNA transfection efficiency in HEK293 cells (HEK293 cells [1]) [%]	Absolute mRNA transfection efficiency in HEK293 cells (HEK293 cells [2]) [%]
CCCCCCCCCCCCCCCCCCNc1nc(NCCN2CCCCC2)nc(N(CCCCCCCCCCCC)CCCCCCCCCCCC)n1 [N18^2N12D4]	0.9	1.2
CCCCCCCCCCCCCCCCSc1nc(NCCN2CCCC2)nc(SCCCCCCCCCCCCCC)n1 [Compound S14S16D3]	0.4	0.2
CCCCCCCCCCCCCCCCSc1nc(NCCN2CCCCC2)nc(SCCCCCCCCCCC)n1 [Compound S11S16D4]	1.7	0.2
CCCCCCCCCCCSc1nc(NCC2CCN(C)CC2)nc(SCCCCCCCCCCC)n1 [Compound S11S11D10]	12.2	13.7
CCCCCCCCCCCCCCCNc1nc(NCCCCCCCC)nc(NCCCN(C)C)n1 [Compound N8N15D6]	1.3	0.0
CCCCCCCCCCCCCCCNc1nc(NCCCCCC)nc(NCCCN2CCN(C)CC2)n1 [Compound N6N15D9]	0.1	0.0
CCCCCCCCCCCCNc1nc(NCCCCCCCC)nc(NCCN(C)C)n1 [Compound N8N12D1]	0.6	0.5
CCCCCCCCCCCCCCCNc1nc(NCCCCCCCCCCCCCCC)nc(NCCN2CCCC2)n1 [Compound N15N15D3]	1.8	3.8
CCCCCCCCCCCCN(CCCCCCCCCCCC)c1nc(NCCCCCCCCC)nc(NCCN2CCN(C)CC2)n1 [N9^2N12D5]	0.0	1.8
CCCCCCCCCCCCCCSc1nc(NCCN2CCOCC2)nc(SCCCCCCCCCCCCCC)n1 [Compound S14S14D2]	0.0	0.0
CCCCCCCCCCCCCNc1nc(NCCCCCCCCCCC)nc(NCCN2CCCCC2)n1 [Compound N11N13D4]	0.0	0.9
CCCCCCCCCCCNc1nc(NCCCCCCC)nc(NCCCN2CCOCC2)n1 [Compound N7N11D8]	0.0	0.0
CCCCCCCCCCCNc1nc(NCCCCCCCCCCC)nc(NCCCN2CCOCC2)n1 [Compound N11N11D8]	0.0	1.5
CCCCCCCCCCCCCNc1nc(NCCCCCCCCCCCC)nc(NCCN2CCCC2)n1 [Compound N12N13D3]	1.7	3.1
CCCCCCCCCCCCN(CCCCCCCCCCCC)c1nc(NCCCCCC)nc(NCCN2CCCCC2)n1 [N6^2N12D4]	0.2	0.0
CCCCCCCCCCCCCCCNc1nc(NCCCCCCCCCCCC)nc(NCC2CCN(C)CC2)n1 [Compound N12N15D10]	0.7	1.2
CCCCCCCCCCCCCCCCSc1nc(NCCN(C)C)nc(SCCCCCCCCCCCCCCC)n1 [Compound S15S16D1]	1.7	0.7
CCCCCCCCCCCCN(CCCCCCCCCCCC)c1nc(NCCCCCCCCC)nc(NCCN(C)C)n1 [N9^2N12D1]	0.0	4.7
CCCCCCCCCCCCCCCNc1nc(NCCCCCCCCCCCC)nc(NCCN2CCN(C)CC2)n1 [Compound N12N15D5]	0.4	3.1
CCCCCCCCCCCCCCCCCCSc1nc(NCCN(C)C)nc(SCCCCCCCCCCCCCC)n1 [Compound S14S18D1]	0.0	0.0
CCCCCCCCCCCCCCSc1nc(NCCN2CCCC2)nc(SCCCCCCCCCCC)n1 [Compound S11S14D3]	6.7	17.9
CCCCCCCCCCCCCCCCNc1nc(NCCCCCCCCCCCC)nc(NCCCN2CCOCC2)n1 [Compound N12N16D8]	0.7	0.9
CCCCCCCCCCCCCCCCSc1nc(NCCN2CCOCC2)nc(SCCCCCCCCCCCCCCC)n1 [Compound S15S16D2]	0.0	0.7
CCCCCCCCCCCCCCCSc1nc(NCCN2CCCC2)nc(SCCCCCCCCCCCC)n1 [Compound S12S15D3]	2.9	9.7
